Converted amounts (≈) assume the structure as drawn.
Assays:
Candida albicans = experiment: Antifungal activity against Candida albicans assessed as inhibition of fungal growth incubated for overnight by MTT based serial dilution method; assay type: functional
Candida tropicalis = experiment: Antifungal activity against Candida tropicalis assessed as inhibition of fungal growth incubated for overnight by MTT based serial dilution method; assay type: functional
Aspergillus fumigatus = experiment: Antifungal activity against Aspergillus fumigatus assessed as inhibition of fungal growth incubated for overnight by MTT based serial dilution method; assay type: functional
Pseudomonas aeruginosa [1] = experiment: Antibacterial activity against Pseudomonas aeruginosa assessed as inhibition of bacterial growth by broth microdilution method; assay type: functional
Klebsiella pneumoniae = experiment: Antibacterial activity against Klebsiella pneumoniae assessed as inhibition of bacterial growth by broth microdilution method; assay type: functional
Staphylococcus aureus [2] = experiment: Antibacterial activity against Staphylococcus aureus assessed as inhibition of bacterial growth by broth microdilution method; assay type: functional
Escherichia coli [3] = experiment: Antibacterial activity against Escherichia coli assessed as inhibition of bacterial growth by broth microdilution method; assay type: functional
Mucor hiemalis = experiment: Antifungal activity against Mucor hiemalis DSM 2656 assessed as inhibition of fungal growth incubated for 24 hrs by serial dilution method; assay type: functional
Staphylococcus aureus [4] = experiment: Antibacterial activity against Staphylococcus aureus DSM 346 assessed as inhibition of bacterial growth incubated for 24 hrs by serial dilution method; assay type: functional
[5] = test system: Mycolicibacterium smegmatis; experiment: Antibacterial activity against Mycobacterium smegmatis DSM ATCC 700084 assessed as inhibition of bacterial growth incubated for 24 hrs by serial dilution method; assay type: functional
Bacillus subtilis [6] = experiment: Antibacterial activity against Bacillus subtilis DSM 10 assessed as inhibition of bacterial growth incubated for 24 hrs by serial dilution method; assay type: functional
Rhodotorula glutinis = experiment: Antifungal activity against Rhodotorula glutinis DSM 10134 assessed as inhibition of fungal growth incubated for 24 hrs by serial dilution method; assay type: functional
[7] = test system: Schizosaccharomyces pombe; experiment: Antifungal activity against Schizosaccharomyces pombe DSM 70572 assessed as inhibition of fungal growth incubated for 24 hrs by serial dilution method; assay type: functional
Vibrio cholerae = experiment: Antibacterial activity against Vibrio cholerae assessed as inhibition of bacterial growth incubated for 24 hrs by broth microdilution method; assay type: functional
Shigella flexneri = experiment: Antibacterial activity against Shigella flexneri assessed as inhibition of bacterial growth incubated for 24 hrs by broth microdilution method; assay type: functional
Staphylococcus aureus [8] = experiment: Antibacterial activity against Staphylococcus aureus assessed as inhibition of bacterial growth incubated for 24 hrs by broth microdilution method; assay type: functional
Escherichia coli [9] = experiment: Antibacterial activity against Escherichia coli JW5503 harboring tolC mutant assessed as inhibition of bacterial growth incubated for 16 to 20 hrs by two-fold serial dilution assay; assay type: functional; details: time 16-20 hrs
Cryptococcus neoformans = experiment: Antifungal activity against Cryptococcus neoformans […] assessed as inhibition of fungal growth incubated for 24 to 48 hrs by CLSI protocol based broth microdilution method; assay type: functional; details: time 24-48 hrs
[10] = test system: Cryptococcus deuterogattii; experiment: Antifungal activity against Cryptococcus gattii VGII WM178/08 assessed as inhibition of fungal growth incubated for 24 to 48 hrs by CLSI protocol based broth microdilution method; assay type: functional, Cryptococcus bacillisporus; details: time 24-48 hrs
[11] = Antimicrobial activity against Pseudomonas syringae pv. actinidiae by turbidimetric analysis; assay type: functional
Xanthomonas axonopodis = experiment: Antimicrobial activity against Xanthomonas axonopodis by turbidimetric analysis; assay type: functional, organism-based
Xanthomonas oryzae = experiment: Antimicrobial activity against Xanthomonas oryzae by turbidimetric analysis; assay type: functional, organism-based
Pythium = experiment: Antifungal activity against Pythium assessed as zone of inhibition incubated upto 9 days by disc diffusion assay; assay type: functional; details: time <= 9 day
Pasteurella multocida [12] = experiment: Antibacterial activity against Pasteurella multocida assessed as inhibition of bacterial growth by agar well dilution assay; assay type: functional
Escherichia coli [13] = experiment: Antibacterial activity against Escherichia coli assessed as inhibition of bacterial growth by agar well dilution assay; assay type: functional
Bacillus subtilis [14] = experiment: Antibacterial activity against Bacillus subtilis assessed as inhibition of bacterial growth by agar well dilution assay; assay type: functional
Staphylococcus aureus [15] = experiment: Antibacterial activity against Staphylococcus aureus assessed as inhibition of bacterial growth by agar well dilution assay; assay type: functional
Pseudomonas aeruginosa [16] = experiment: Antibacterial activity against Pseudomonas aeruginosa assessed as zone of inhibition incubated for 24 hrs by disk diffusion method; assay type: functional
Staphylococcus aureus [17] = experiment: Antibacterial activity against Staphylococcus aureus TISTR 1466 assessed as inhibition of bacterial growth by two-fold serial dilution method; assay type: functional
Staphylococcus aureus [18] = experiment: Antibacterial activity against methicillin-resistant Staphylococcus aureus SK1 assessed as inhibition of bacterial growth by two-fold serial dilution method; assay type: functional
Pasteurella multocida [19] = experiment: Antibacterial activity against Pasteurella multocida assessed as inhibition of bacterial growth by agar well diffusion method; assay type: functional
Bacillus subtilis [20] = experiment: Antibacterial activity against Bacillus subtilis assessed as zone of inhibition by agar-disc diffusion method; assay type: functional
Staphylococcus aureus [21] = experiment: Antibacterial activity against Staphylococcus aureus assessed as zone of inhibition by agar-disc diffusion method; assay type: functional
Salmonella typhimurium = experiment: Antibacterial activity against Salmonella typhimurium TISTR 292 assessed as inhibition of bacterial growth by two-fold serial dilution method; assay type: functional, Salmonella enterica subsp. enterica serovar Typhimurium; details: Salmonella enterica
Escherichia coli [22] = experiment: Antibacterial activity against Escherichia coli TISTR 780 assessed as inhibition of bacterial growth by two-fold serial dilution method; assay type: functional

## COCn1c2c(c3cccc(C)c31)Cc1cocc1C2
Candida albicans
  MIC: 7.81 µg/mL (≈ 29.2 µM)
Candida tropicalis
  MIC: 7.81 µg/mL (≈ 29.2 µM)
Aspergillus fumigatus
  MIC: 7.81 µg/mL (≈ 29.2 µM)

## Cc1cc2c([nH]c3ccc(O)cc32)c2c1OC(C)(C)C=C2
Pseudomonas aeruginosa [1]
  MIC90: > 100 µg/mL
Klebsiella pneumoniae
  MIC90: 3.12 µg/mL (≈ 11.2 µM)
Staphylococcus aureus [2]
  MIC90: 3.12 µg/mL (≈ 11.2 µM)
Escherichia coli [3]
  MIC90: > 100 µg/mL

## Clc1ccc2[nH]c3c(c2c1)CCCC31CCCn2ccnc21 (configuration not stated)
Mucor hiemalis
  MIC: 53.2 µM (≈ 16.6 µg/mL)
Staphylococcus aureus [4]
  MIC: 53.2 µM (≈ 16.6 µg/mL)
[5]
  MIC: 53.2 µM (≈ 16.6 µg/mL)
Bacillus subtilis [6]
  MIC: 53.2 µM (≈ 16.6 µg/mL)
Rhodotorula glutinis
  MIC: 53.2 µM (≈ 16.6 µg/mL)
[7]
  MIC: 53.2 µM (≈ 16.6 µg/mL)

## CC(C)=CCCC1(C)C=Cc2c(c(C)cc3c2[nH]c2cc(O)ccc23)O1 (configuration not stated)
Pseudomonas aeruginosa [1]
  MIC90: > 100 µg/mL
Klebsiella pneumoniae
  MIC90: 3.12 µg/mL (≈ 8.98 µM)
Staphylococcus aureus [2]
  MIC90: 3.12 µg/mL (≈ 8.98 µM)
Escherichia coli [3]
  MIC90: > 100 µg/mL

## COc1cc(C=O)c(CC=C(C)C)c2c1[nH]c1ccccc12 [EKEBERGININE]
Vibrio cholerae
  MIC: 32 µg/mL (≈ 109 µM)
Shigella flexneri
  MIC: 32 µg/mL (≈ 109 µM)
Staphylococcus aureus [8]
  MIC: 32 µg/mL (≈ 109 µM)

## NC1CCCc2c1[nH]c1ccc(Cl)cc21 (configuration not stated)
Escherichia coli [9]
  MIC: 37 µg/mL (≈ 168 µM)

## Brc1ccc2[nH]c3c(c2c1)CCCC31CCCn2ccnc21 (configuration not stated)
Mucor hiemalis
  MIC: 66.6 µM (≈ 23.7 µg/mL)
Staphylococcus aureus [4]
  MIC: 66.6 µM (≈ 23.7 µg/mL)
[5]
  MIC: 66.6 µM (≈ 23.7 µg/mL)
Bacillus subtilis [6]
  MIC: 66.6 µM (≈ 23.7 µg/mL)
Rhodotorula glutinis
  MIC: 66.6 µM (≈ 23.7 µg/mL)
[7]
  MIC: 66.6 µM (≈ 23.7 µg/mL)

## c1ccc2c(c1)[nH]c1ccccc12 [CARBAZOLE]
Cryptococcus neoformans
  MIC: 160 µg/mL (≈ 957 µM)
[10]
  MIC: 160 µg/mL (≈ 957 µM)

## NC[C@H]1O[C@H](O[C@H]2[C@H](O)[C@@H](O[C@H]3O[C@H](CO)[C@@H](O)[C@H](N)[C@H]3O)[C@H](N)C[C@@H]2N)[C@H](O)[C@@H](O)[C@@H]1O [KANAMYCIN]
Klebsiella pneumoniae
  MIC90: 12.5 µg/mL (≈ 25.8 µM)
Staphylococcus aureus [2]
  MIC90: 12.5 µg/mL (≈ 25.8 µM)

## OC(CNCc1cn(-c2ccc(F)cc2)nn1)Cn1c2ccccc2c2ccccc21 (configuration not stated)
[11]
  EC50: 14.2 µg/mL (≈ 34.2 µM)
Xanthomonas axonopodis
  EC50: 2.87 µg/mL (≈ 6.91 µM)
Xanthomonas oryzae
  EC50: 3.36 µg/mL (≈ 8.09 µM)

## COC(=O)c1cc2c(cc1OC)[nH]c1ccccc12 [CLAUSINE L]
Pythium
  inhibition zone (IZ): 10.2 mm

## C/C(=N/C(=S)C(=S)n1cc(CC(=O)O)c2ccccc21)C1CCCc2c1[nH]c1c([N+](=O)[O-])cc([N+](=O)[O-])cc21 (configuration not stated)
Pasteurella multocida [12]
  MIC: 0.056 µg/mL (≈ 0.0994 µM)
Escherichia coli [13]
  MIC: 0.056 µg/mL (≈ 0.0994 µM)
Bacillus subtilis [14]
  MIC: 0.056 µg/mL (≈ 0.0994 µM)
Staphylococcus aureus [15]
  MIC: 0.056 µg/mL (≈ 0.0994 µM)

## CCOc1nc2c(c(-c3ccc(F)cc3)c1C(N)=O)CCc1c-2[nH]c2ccccc12
Pseudomonas aeruginosa [16]
  inhibition zone (IZ): 2.1 cm

## C=CC(=C)c1c(C(=O)OC)cc(O)c2[nH]c3ccccc3c12
Staphylococcus aureus [17]
  MIC: 4 µg/mL (≈ 13.6 µM)
Staphylococcus aureus [18]
  MIC: 4 µg/mL (≈ 13.6 µM)

## COc1ccc2c(c1)[nH]c1cc(OC)c(C(=O)O)cc12 [CLAUSINE K]
Pythium
  inhibition zone (IZ): 16.2 mm

## C=C(C)C1Cc2c(cc(OC)c3[nH]c4ccccc4c23)C(=O)O1 (configuration not stated) [CLAUSAMINE B]
Staphylococcus aureus [18]
  MIC: 0.25 µg/mL (≈ 0.813 µM)

## C/C(=N/Nc1ccc([N+](=O)[O-])cc1[N+](=O)[O-])C1CCCc2c1n(C)c1c([N+](=O)[O-])cc([N+](=O)[O-])cc21 (configuration not stated)
Pasteurella multocida [19]
  MIC: 4.5 µg/mL (≈ 9.05 µM)

## CC(C)=CCc1c(O)c(C=O)cc2c1[nH]c1ccccc12 [HEPTAPHYLLINE]
Bacillus subtilis [20]
  inhibition zone (IZ): 12 mm
Staphylococcus aureus [21]
  inhibition zone (IZ): 14 mm

## COc1cc(C)c(CC=C(C)C)c2c1[nH]c1ccccc12
Vibrio cholerae
  MIC: 32 µg/mL (≈ 115 µM)
Shigella flexneri
  MIC: 32 µg/mL (≈ 115 µM)
Staphylococcus aureus [8]
  MIC: 32 µg/mL (≈ 115 µM)

## COC(=O)c1cc(O)c2[nH]c3ccc(O)c(CC=C(C)C)c3c2c1
Salmonella typhimurium
  MIC: 64 µg/mL (≈ 197 µM)
Escherichia coli [22]
  MIC: 64 µg/mL (≈ 197 µM)
Staphylococcus aureus [17]
  MIC: 64 µg/mL (≈ 197 µM)
Staphylococcus aureus [18]
  MIC: 64 µg/mL (≈ 197 µM)

## O=C1COc2ccccc2N1CC(O)CN1CCN(CC(O)Cn2c3ccccc3c3ccccc32)CC1 (configuration not stated)
[11]
  EC50: 8.5 µg/mL (≈ 16.5 µM)
Xanthomonas axonopodis
  EC50: 4.71 µg/mL (≈ 9.15 µM)
Xanthomonas oryzae
  EC50: 4.95 µg/mL (≈ 9.62 µM)

From ChEMBL document CHEMBL5532637, “Antimicrobial activity of natural and semi-synthetic carbazole alkaloids” (Eur J Med Chem, 2023)
